Laboratory results: ChEMBL document CHEMBL4390702, “Discovery of novel phenoxybenzamide analogues as Raf/HDAC dual inhibitors” (Bioorg Med Chem Lett, 2019)
Calls of active or inactive are those of the source. The calls are words filed in the database; no cut-off is given here.

What was measured:
[1] = biological target: Serine/threonine-protein kinase B-raf (Homo sapiens, UniProt P15056, V600E); assay: Inhibition of recombinant human N-terminal GST-tagged BRAF V600E mutant catalytic domain (416 to 766 residues) expressed in baculovirus expression system using human His6-tagged MEK1 (K97R) as substrate preincubated for 20 mins followed by [33P-gamma]ATP addition and measured after 2 hrs by filter-binding assay
Histone deacetylase 1 [2] = biological target: T1, Histone deacetylase 1 (Homo sapiens, UniProt Q13547); assay: Inhibition of recombinant full-length human C-terminal FLAG/His-tagged HDAC1 expressed in baculovirus infected Sf9 insect cells using Fluor-de-Lys as substrate measured after 10 mins by fluorescence assay
Histone deacetylase 1 [3] = biological target: T1, Histone deacetylase 1; assay: Inhibition of recombinant full-length human C-terminal FLAG/His-tagged HDAC1 expressed in baculovirus infected Sf9 insect cells at 50 uM using Fluor-de-Lys as substrate measured after 10 mins by fluorescence assay
HepG2 = assay: Antiproliferative activity against human HepG2 cells measured after 48 hrs by MTT assay; format: functional, cell-based; conditions: HepG2, 48 h
MDA-MB-468 = assay: Antiproliferative activity against human MDA-MB-468 cells measured after 48 hrs by MTT assay; format: functional, cell-based; conditions: MDA-MB-468, 48 h
MV4-11 = assay: Antiproliferative activity against human MV4-11 cells measured after 48 hrs by MTT assay; format: functional, cell-based; conditions: MV4-11, 48 h
[4] = biological target: T2, Histone deacetylase 8 (Homo sapiens) (UniProt Q9BY41); assay: Inhibition of recombinant full-length human C-terminal His-tagged HDAC8 expressed in baculovirus infected Sf9 insect cells at 50 uM using Fluor-de-Lys as substrate measured after 10 mins by fluorescence assay
T2 sequence (whole entry): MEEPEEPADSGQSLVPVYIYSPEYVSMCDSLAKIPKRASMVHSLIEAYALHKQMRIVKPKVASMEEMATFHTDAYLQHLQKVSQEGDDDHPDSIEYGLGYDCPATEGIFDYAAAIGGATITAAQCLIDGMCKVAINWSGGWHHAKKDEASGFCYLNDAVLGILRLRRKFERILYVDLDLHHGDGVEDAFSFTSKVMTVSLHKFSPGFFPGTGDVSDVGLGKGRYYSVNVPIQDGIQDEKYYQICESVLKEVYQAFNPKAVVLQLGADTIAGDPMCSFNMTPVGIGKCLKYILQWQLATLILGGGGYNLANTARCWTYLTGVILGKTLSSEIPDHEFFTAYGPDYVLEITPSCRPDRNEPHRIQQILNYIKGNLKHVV

[5] = biological target: T3, Protein deacetylase HDAC6 (Homo sapiens) (UniProt Q9UBN7); assay: Inhibition of recombinant human HDAC6 at 50 uM using Fluor-de-Lys as substrate measured after 10 mins by fluorescence assay
T3 sequence (whole entry): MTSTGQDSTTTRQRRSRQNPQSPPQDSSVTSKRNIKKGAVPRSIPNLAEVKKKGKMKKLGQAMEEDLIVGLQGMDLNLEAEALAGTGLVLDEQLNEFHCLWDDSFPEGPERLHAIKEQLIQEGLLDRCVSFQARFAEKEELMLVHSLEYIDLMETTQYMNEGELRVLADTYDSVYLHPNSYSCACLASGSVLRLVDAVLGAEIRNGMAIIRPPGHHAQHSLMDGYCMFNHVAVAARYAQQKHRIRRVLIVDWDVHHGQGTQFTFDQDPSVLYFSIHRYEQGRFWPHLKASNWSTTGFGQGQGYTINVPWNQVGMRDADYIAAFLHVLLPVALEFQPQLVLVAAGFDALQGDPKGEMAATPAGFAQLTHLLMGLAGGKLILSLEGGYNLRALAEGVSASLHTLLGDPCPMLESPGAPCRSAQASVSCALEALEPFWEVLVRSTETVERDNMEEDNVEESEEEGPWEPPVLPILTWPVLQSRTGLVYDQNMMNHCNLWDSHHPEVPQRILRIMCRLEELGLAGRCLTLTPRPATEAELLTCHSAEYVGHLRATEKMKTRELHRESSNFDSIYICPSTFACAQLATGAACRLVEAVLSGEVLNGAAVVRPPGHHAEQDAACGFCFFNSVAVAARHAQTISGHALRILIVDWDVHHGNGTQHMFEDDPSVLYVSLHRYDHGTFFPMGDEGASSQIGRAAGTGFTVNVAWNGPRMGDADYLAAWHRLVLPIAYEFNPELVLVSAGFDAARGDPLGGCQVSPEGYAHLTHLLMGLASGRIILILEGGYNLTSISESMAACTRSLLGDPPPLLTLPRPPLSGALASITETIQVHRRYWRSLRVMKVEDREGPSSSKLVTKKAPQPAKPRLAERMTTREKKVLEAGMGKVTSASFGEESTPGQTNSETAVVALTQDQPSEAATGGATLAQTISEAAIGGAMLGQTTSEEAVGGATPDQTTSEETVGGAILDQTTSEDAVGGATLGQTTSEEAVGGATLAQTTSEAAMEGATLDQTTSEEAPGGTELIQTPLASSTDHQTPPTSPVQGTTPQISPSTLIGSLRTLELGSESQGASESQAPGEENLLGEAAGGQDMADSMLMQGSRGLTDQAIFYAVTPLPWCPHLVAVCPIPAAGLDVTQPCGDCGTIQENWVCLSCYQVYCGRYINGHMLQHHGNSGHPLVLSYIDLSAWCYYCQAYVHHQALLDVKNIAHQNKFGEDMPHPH

[6] = biological target: T4, Serine/threonine-protein kinase A-Raf (Homo sapiens, UniProt P10398); assay: Inhibition of human ARAF using human His6-tagged MEK1 (K97R) as substrate preincubated for 20 mins followed by [33P-gamma]ATP addition and measured after 2 hrs by filter-binding assay
T4 sequence (P10398 whole entry): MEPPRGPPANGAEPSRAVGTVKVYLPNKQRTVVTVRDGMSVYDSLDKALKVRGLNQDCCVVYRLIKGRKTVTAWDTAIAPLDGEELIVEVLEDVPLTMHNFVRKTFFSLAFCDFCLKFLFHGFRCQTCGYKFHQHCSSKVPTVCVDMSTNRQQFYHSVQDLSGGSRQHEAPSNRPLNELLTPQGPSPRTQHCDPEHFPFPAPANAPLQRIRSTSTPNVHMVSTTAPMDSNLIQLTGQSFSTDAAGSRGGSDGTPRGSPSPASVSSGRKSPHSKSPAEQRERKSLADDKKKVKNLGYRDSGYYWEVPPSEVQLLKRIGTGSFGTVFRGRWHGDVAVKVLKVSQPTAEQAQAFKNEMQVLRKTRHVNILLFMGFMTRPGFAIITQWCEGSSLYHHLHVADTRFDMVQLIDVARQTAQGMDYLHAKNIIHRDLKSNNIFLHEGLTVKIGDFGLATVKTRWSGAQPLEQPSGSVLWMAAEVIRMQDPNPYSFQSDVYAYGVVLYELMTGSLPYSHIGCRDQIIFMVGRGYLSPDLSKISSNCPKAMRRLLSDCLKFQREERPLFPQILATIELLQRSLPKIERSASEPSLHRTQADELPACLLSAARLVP

K562 = assay: Antiproliferative activity against human K562 cells measured after 48 hrs by MTT assay; format: functional, cell-based; conditions: K562, 48 h
[7] = biological target: RAF proto-oncogene serine/threonine-protein kinase (Homo sapiens, UniProt P04049); assay: Inhibition of human CRAF using human His6-tagged MEK1 (K97R) as substrate preincubated for 20 mins followed by [33P-gamma]ATP addition and measured after 2 hrs by filter-binding assay
Histone deacetylase 1 [8] = biological target: T1, Histone deacetylase 1; assay: Inhibition of HDAC1 (unknown origin)

T1 sequence (Q13547 whole entry): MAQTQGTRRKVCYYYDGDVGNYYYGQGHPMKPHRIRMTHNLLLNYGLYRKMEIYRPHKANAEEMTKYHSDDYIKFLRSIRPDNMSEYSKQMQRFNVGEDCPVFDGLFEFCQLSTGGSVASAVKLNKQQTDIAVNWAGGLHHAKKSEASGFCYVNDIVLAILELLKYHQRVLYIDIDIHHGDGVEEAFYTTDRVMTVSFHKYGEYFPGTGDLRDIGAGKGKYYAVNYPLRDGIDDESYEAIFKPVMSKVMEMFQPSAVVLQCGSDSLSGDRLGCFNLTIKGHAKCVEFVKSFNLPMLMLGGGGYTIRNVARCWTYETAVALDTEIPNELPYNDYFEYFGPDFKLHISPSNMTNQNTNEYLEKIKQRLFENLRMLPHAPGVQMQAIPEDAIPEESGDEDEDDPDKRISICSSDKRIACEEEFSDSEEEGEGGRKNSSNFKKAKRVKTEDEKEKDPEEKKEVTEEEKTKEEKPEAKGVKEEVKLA
Sequence of RAF proto-oncogene serine/threonine-protein kinase (P04049 whole entry): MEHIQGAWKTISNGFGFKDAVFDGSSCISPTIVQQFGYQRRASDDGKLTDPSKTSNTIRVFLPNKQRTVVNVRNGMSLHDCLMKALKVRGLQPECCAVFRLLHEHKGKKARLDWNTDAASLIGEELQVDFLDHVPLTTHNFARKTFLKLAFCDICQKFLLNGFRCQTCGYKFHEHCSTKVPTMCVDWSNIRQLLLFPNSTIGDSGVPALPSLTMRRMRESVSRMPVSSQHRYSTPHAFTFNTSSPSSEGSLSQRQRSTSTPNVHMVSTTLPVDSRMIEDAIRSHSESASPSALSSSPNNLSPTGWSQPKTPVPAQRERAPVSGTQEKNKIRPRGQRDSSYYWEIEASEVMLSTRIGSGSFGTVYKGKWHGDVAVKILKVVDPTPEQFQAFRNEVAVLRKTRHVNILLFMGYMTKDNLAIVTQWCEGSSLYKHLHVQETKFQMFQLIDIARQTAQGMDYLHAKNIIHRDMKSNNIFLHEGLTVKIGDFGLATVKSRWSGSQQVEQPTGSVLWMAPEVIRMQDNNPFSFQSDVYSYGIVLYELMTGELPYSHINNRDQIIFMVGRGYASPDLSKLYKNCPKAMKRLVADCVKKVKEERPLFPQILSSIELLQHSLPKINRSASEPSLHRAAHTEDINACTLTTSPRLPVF

SMILES	IC50 [1]	IC50 (Histone deacetylase 1 [2])	inhibition (Histone deacetylase 1 [3])	IC50 (HepG2)	IC50 (MDA-MB-468)	IC50 (MV4-11)	inhibition [4]	inhibition [5]	IC50 [6]	IC50 (K562)	IC50 [7]	IC50 (Histone deacetylase 1 [8])
CNC(=O)c1cc(Oc2ccc(NC(=O)c3cccc(N)c3)cc2)ccc1N	3.26 µM	1.03 µM	–	–	–	–	–	–	–	–	–	–
CN(C)C(=O)c1cc(Oc2ccc(NC(=O)c3ccc(Cl)c(C(F)(F)F)c3)cc2)ccc1N	4.17 µM	–	inactive	–	–	–	–	–	–	–	–	–
CNC(=O)c1cc(Oc2ccc(NC(=O)c3ccc(N)cc3)cc2)ccc1N	0.942 µM	2.27 µM	–	–	–	–	–	–	–	–	–	–
CNC(=O)c1cc(Oc2ccc(NC(=O)c3ccc(Cl)c(C(F)(F)F)c3)cc2)ccc1N	0.073 µM	1.17 µM	–	1.33 µM	0.57 µM	1.12 µM	inactive	inactive	0.183 µM	2.73 µM	0.092 µM	–
CNC(=O)c1cc(Oc2ccc(NC(=O)c3ccccc3)cc2)ccc1N	0.342 µM	6.19 µM	–	–	–	–	–	–	–	–	–	–
NC(=O)c1cc(Oc2ccc(NC(=O)c3ccc(Cl)c(C(F)(F)F)c3)cc2)ccc1N	0.688 µM	2.79 µM	–	–	–	–	–	–	–	–	–	–
CNC(=O)c1cc(Oc2ccc(NC(=O)c3ccc(F)cc3)cc2)ccc1N	0.303 µM	7.65 µM	–	7.56 µM	5.76 µM	5.32 µM	–	–	–	6.43 µM	–	–
CNC(=O)c1cc(Oc2ccc(NC(=O)c3cccc(O)c3)cc2)ccc1N	4.06 µM	1.95 µM	–	–	–	–	–	–	–	–	–	–
CNC(=O)c1cc(Oc2ccc(NC(=O)c3ccc4ccccc4c3)cc2)ccc1N	0.237 µM	8.21 µM	–	7.28 µM	3.91 µM	8.21 µM	–	–	–	10.3 µM	–	–
CNC(=O)c1cc(Oc2ccc(NC(=O)c3cccnc3)cc2)ccc1N	1.78 µM	5.23 µM	–	–	–	–	–	–	–	–	–	5.23 µM
CCNC(=O)c1cc(Oc2ccc(NC(=O)c3ccc(Cl)c(C(F)(F)F)c3)cc2)ccc1N	0.354 µM	1.62 µM	–	–	–	–	–	–	–	–	–	–
Nc1cc(F)ccc1NC(=O)c1ccc(CNC(=O)/C=C/c2cccnc2)cc1 [TUCIDINOSTAT]	–	–	–	4.89 µM	2.65 µM	3.73 µM	inactive	inactive	–	0.87 µM	–	–
CNC(=O)c1cc(Oc2ccc(NC(=O)Nc3ccc(Cl)c(C(F)(F)F)c3)cc2)ccn1 [SORAFENIB]	–	–	–	3.04 µM	12.2 µM	0.51 µM	–	–	–	17.2 µM	–	–
CNC(=O)c1cc(Oc2ccc(NC(=O)c3ccc(OC)cc3)cc2)ccc1N	0.187 µM	2.46 µM	–	6.65 µM	0.95 µM	1.87 µM	inactive	inactive	0.211 µM	5.22 µM	0.652 µM	–
CNC(=O)c1cc(Oc2ccc(NC(=O)c3ccc(Cl)cc3)cc2)ccc1N	0.165 µM	7.11 µM	–	5.13 µM	4.24 µM	9.23 µM	–	–	–	7.12 µM	–	–
